Earlier results as cited in PMC10323144, “Garbage in, garbage out: how reliable training data improved a virtual screening approach against SARS-CoV-2 MPro” (Frontiers in Pharmacology, 2023).
Square brackets hold non-standard residues; d marks the D form. Peptide text beside a SMILES is read from it. * marks the point of attachment. Nle = CCCC[CH](N)C(=O)O; Cbz = O=C(OCc1ccccc1)*

Tested on: MPro
Settings: compiled from peer-reviewed sources (287 compounds) ref the 18 original articles; cited from earlier work

Compound | Class (MPro activity class)
CC(C)C(NC(=O)OCc1ccccc1)C(=O)NC(C=O)Cc1ccccc1 (stereo not drawn) [Calpain inhibitor III] (Cbz-Val-Phe-aldehyde; configuration not given here) | 0 (compounds with IC50 > 20 μM, percentage inhibition <80% at 20 µM or 50 μM, or percentage enzyme inhibition <50% at 10 µM were labelled as INACTIVE)
CSCCC(C=O)NC(=O)C(CC(C)C)NC(=O)C(CC(C)C)NC(C)=O (stereo not drawn) [Calpain inhibitor II] (Ac-Leu-Leu-Met-aldehyde; configuration not given here) | 1 (Compounds with IC50 < 10 µM or with a percentage of enzyme inhibition >50% at 10 µM were labelled as ACTIVE)
CCCCC(C=O)NC(=O)C(CC(C)C)NC(=O)C(CC(C)C)NC(C)=O (stereo not drawn) [Calpain inhibitor I] (Ac-Leu-Leu-[Nle]-aldehyde; configuration not given here) | 1 (Compounds with IC50 < 10 µM or with a percentage of enzyme inhibition >50% at 10 µM were labelled as ACTIVE)
CC(C)CC(C=O)NC(=O)C(NS(=O)(=O)c1ccc(F)cc1)C(C)C (centres unmarked) [Calpain inhibitor VI] | 0 (compounds with IC50 > 20 μM, percentage inhibition <80% at 20 µM or 50 μM, or percentage enzyme inhibition <50% at 10 µM were labelled as INACTIVE)
CCCC(NC(=O)C(CC(C)C)NC(=O)OCc1ccccc1)C(=O)C(=O)NCc1ccccn1 (centres unmarked) [Calpain inhibitor XII] | 1 (Compounds with IC50 < 10 µM or with a percentage of enzyme inhibition >50% at 10 µM were labelled as ACTIVE)
CN(C)C(=O)COC(=O)Cc1ccc(OC(=O)c2ccc(NC(=N)N)cc2)cc1 [Camostat] | 0 (compounds with IC50 > 20 μM, percentage inhibition <80% at 20 µM or 50 μM, or percentage enzyme inhibition <50% at 10 µM were labelled as INACTIVE)
CC1C=CC=CC=CC=CC=CC=CC=CC(OC2OC(C)C(O)C(N)C2O)CC(O)C(C(=O)O)C(O)CC(=O)CC(O)CC(O)CC(O)CC(=O)CCCC(=O)CC(=O)OC1C(C)CC(C)C(O)CC(=O)c1ccc(N)cc1 (centres unmarked) [Candicidin] | 0 (compounds with IC50 > 20 μM, percentage inhibition <80% at 20 µM or 50 μM, or percentage enzyme inhibition <50% at 10 µM were labelled as INACTIVE)
Cn1nc(C(C)(C)C)cc1C(=O)NC(Cc1cccc(Cl)c1)C(=O)NCC#N (centres unmarked) [Cathepsin inhibitor 1] | 0 (compounds with IC50 > 20 μM, percentage inhibition <80% at 20 µM or 50 μM, or percentage enzyme inhibition <50% at 10 µM were labelled as INACTIVE)
O=C(/C=C/c1ccc(O)c(O)c1)O[C@@H]1C[C@](O)(C(=O)O)C[C@@H](O)[C@H]1O [Chlorogenic acid] | 0 (compounds with IC50 > 20 μM, percentage inhibition <80% at 20 µM or 50 μM, or percentage enzyme inhibition <50% at 10 µM were labelled as INACTIVE)
O=C(O)C1OC(Oc2cc(O)c3c(=O)cc(-c4ccccc4)oc3c2)C(O)C(O)C1O [Chrysin-7-O-β-D-glucoronide] | 0 (compounds with IC50 > 20 μM, percentage inhibition <80% at 20 µM or 50 μM, or percentage enzyme inhibition <50% at 10 µM were labelled as INACTIVE)
O=c1cc(-c2ccccc2)oc2cc(O)cc(O)c12 [Chrysin] | 0 (compounds with IC50 > 20 μM, percentage inhibition <80% at 20 µM or 50 μM, or percentage enzyme inhibition <50% at 10 µM were labelled as INACTIVE)
O=C(C=Cc1ccc(O)c(O)c1)OC1C(O)CC(O)(C(=O)O)CC1O (centres unmarked) [Cryptochlorogenic acid] | 0 (compounds with IC50 > 20 μM, percentage inhibition <80% at 20 µM or 50 μM, or percentage enzyme inhibition <50% at 10 µM were labelled as INACTIVE)
CC(C)CC1CN(C(=O)CCl)CCN1Cc1cccc(Cl)c1 (centres unmarked) [DAN-LON-a5fc619e-3] | 1 (Compounds with IC50 < 10 µM or with a percentage of enzyme inhibition >50% at 10 µM were labelled as ACTIVE)
O=C(CCl)N1CC2CC1CN2Cc1cccc(Cl)c1 (centres unmarked) [DAN-LON-a5fc619e-8] | 1 (Compounds with IC50 < 10 µM or with a percentage of enzyme inhibition >50% at 10 µM were labelled as ACTIVE)
CC(NC(=O)Cc1cc(F)cc(F)c1)C(=O)NC(C(=O)OC(C)(C)C)c1ccccc1 (centres unmarked) [DAPT (GSI-IX)] | 0 (compounds with IC50 > 20 μM, percentage inhibition <80% at 20 µM or 50 μM, or percentage enzyme inhibition <50% at 10 µM were labelled as INACTIVE)
CCNc1ncc(C#N)cc1CN1CCN(C(=O)CCl)CC1 [DAR-DIA-fb20be43-4] | 1 (Compounds with IC50 < 10 µM or with a percentage of enzyme inhibition >50% at 10 µM were labelled as ACTIVE)
N#Cc1cc(CN2CCN(C(=O)CCl)CC2)c2ccccc2c1 [DAR-DIA-fb20be43-6] | 1 (Compounds with IC50 < 10 µM or with a percentage of enzyme inhibition >50% at 10 µM were labelled as ACTIVE)
COc1cc(CN2CCN(C(=O)CCl)CC2)c2ccccc2c1 [DAR-DIA-fb20be43-7] | 1 (Compounds with IC50 < 10 µM or with a percentage of enzyme inhibition >50% at 10 µM were labelled as ACTIVE)
CC(O)c1cc(C(=O)N[C@@H](C)Cn2ccc(-c3ccc(C#N)c(Cl)c3)n2)[nH]n1 (some centres unmarked) [DAROLUTAMIDE] | 0 (compounds with IC50 > 20 μM, percentage inhibition <80% at 20 µM or 50 μM, or percentage enzyme inhibition <50% at 10 µM were labelled as INACTIVE)

Compound | Class (MPro activity class)
CC(NC(=O)CCl)c1cc(Cl)cc(-c2ccc(S(N)(=O)=O)cc2)c1 (centres unmarked) [DAV-CRI-14a23e73-1] | 1 (Compounds with IC50 < 10 µM or with a percentage of enzyme inhibition >50% at 10 µM were labelled as ACTIVE)
O=C(CCl)Nc1nc2c(S(=O)(=O)NCCc3ccccc3)cccc2s1 [DUN-NEW-f8ce3686-23] | 1 (Compounds with IC50 < 10 µM or with a percentage of enzyme inhibition >50% at 10 µM were labelled as ACTIVE)
COC(=O)N[C@H](C(=O)N1CCC[C@H]1c1nc(-c2ccc(-c3ccc(-c4c[nH]c([C@@H]5CCCN5C(=O)[C@@H](NC(=O)OC)C(C)C)n4)cc3)cc2)c[nH]1)C(C)C [Daclatasvir] | 0 (compounds with IC50 > 20 μM, percentage inhibition <80% at 20 µM or 50 μM, or percentage enzyme inhibition <50% at 10 µM were labelled as INACTIVE)
CC(C)(C)OC(=O)N[C@H]1CCCCC/C=C\[C@@H]2C[C@@]2(C(=O)NS(=O)(=O)C2CC2)NC(=O)[C@@H]2C[C@@H](OC(=O)N3Cc4cccc(F)c4C3)CN2C1=O [Danoprevir] | 0 (compounds with IC50 > 20 μM, percentage inhibition <80% at 20 µM or 50 μM, or percentage enzyme inhibition <50% at 10 µM were labelled as INACTIVE)
CC(C)CN(C[C@@H](O)[C@H](Cc1ccccc1)NC(=O)O[C@H]1CO[C@H]2OCC[C@H]21)S(=O)(=O)c1ccc(N)cc1 [Darunavir] | 0 (compounds with IC50 > 20 μM, percentage inhibition <80% at 20 µM or 50 μM, or percentage enzyme inhibition <50% at 10 µM were labelled as INACTIVE)
CC(C)Nc1cccnc1N1CCN(C(=O)c2cc3cc(NS(C)(=O)=O)ccc3[nH]2)CC1 [Delavirdine] | 0 (compounds with IC50 > 20 μM, percentage inhibition <80% at 20 µM or 50 μM, or percentage enzyme inhibition <50% at 10 µM were labelled as INACTIVE)
O=C1c2c(O)cc(O)cc2O[C@H](c2cc(O)c(O)c(O)c2)[C@H]1O [Dihydromyricetin] | 1 (Compounds with IC50 < 10 µM or with a percentage of enzyme inhibition >50% at 10 µM were labelled as ACTIVE)
CC(C)CC(NC(=O)C1OC1C(=O)O)C(=O)NCCCCN=C(N)N (centres unmarked) [E-64] | 0 (compounds with IC50 > 20 μM, percentage inhibition <80% at 20 µM or 50 μM, or percentage enzyme inhibition <50% at 10 µM were labelled as INACTIVE)
O=C(Cc1cccc(Cl)c1)Nc1cccnc1 [EDG-MED0da5ad92-2] | 0 (compounds with IC50 > 20 μM, percentage inhibition <80% at 20 µM or 50 μM, or percentage enzyme inhibition <50% at 10 µM were labelled as INACTIVE)
Cc1ccc(NC(=O)Cc2cccc(Cl)c2)cn1 [EDG-MED0da5ad92-13] | 0 (compounds with IC50 > 20 μM, percentage inhibition <80% at 20 µM or 50 μM, or percentage enzyme inhibition <50% at 10 µM were labelled as INACTIVE)
Cc1ncccc1NC(=O)Cc1cccc(Cl)c1 [EDG-MED0da5ad92-14] | 0 (compounds with IC50 > 20 μM, percentage inhibition <80% at 20 µM or 50 μM, or percentage enzyme inhibition <50% at 10 µM were labelled as INACTIVE)
C#Cc1cccc(Nc2ncnc3cc(OCCOC)c(OCCOC)cc23)c1 [ERLOTINIB] | 0 (compounds with IC50 > 20 μM, percentage inhibition <80% at 20 µM or 50 μM, or percentage enzyme inhibition <50% at 10 µM were labelled as INACTIVE)
COc1cc2c(cc1Cc1cccc(Cl)c1F)c(=O)c(C(=O)O)cn2[C@H](CO)C(C)C [Elvitegravir] | 0 (compounds with IC50 > 20 μM, percentage inhibition <80% at 20 µM or 50 μM, or percentage enzyme inhibition <50% at 10 µM were labelled as INACTIVE)
Cc1cc(C#N)cc(C)c1Oc1nc(Nc2ccc(C#N)cc2)nc(N)c1Br [Etravirine] | 0 (compounds with IC50 > 20 μM, percentage inhibition <80% at 20 µM or 50 μM, or percentage enzyme inhibition <50% at 10 µM were labelled as INACTIVE)
C[C@@H]1O[C@@H](OC[C@H]2O[C@@H](OCCc3ccc(O)c(O)c3)[C@H](O)[C@@H](O)[C@@H]2OC(=O)/C=C/c2ccc(O)c(O)c2)[C@H](O)[C@H](O)[C@H]1O [Forsythoside A] | 1 (Compounds with IC50 < 10 µM or with a percentage of enzyme inhibition >50% at 10 µM were labelled as ACTIVE)
CC1OC(OCC2OC(OCCc3ccc(O)c(O)c3)C(O)C(OC(=O)C=Cc3ccc(O)c(O)c3)C2O)C(O)C(O)C1O (centres unmarked) [Forsythoside I] | 1 (Compounds with IC50 < 10 µM or with a percentage of enzyme inhibition >50% at 10 µM were labelled as ACTIVE)
CO[C@@H]1[C@H](OC(=O)/C=C/C=C/C=C/C=C/C(=O)O)CC[C@]2(CO2)[C@H]1[C@@]1(C)O[C@@H]1CC=C(C)C [Fumagillin] | 0 (compounds with IC50 > 20 μM, percentage inhibition <80% at 20 µM or 50 μM, or percentage enzyme inhibition <50% at 10 µM were labelled as INACTIVE)
Cc1cc(Nc2cc(CN3CCOCC3)c3nc(C)c(Cc4ccc(Cl)cc4F)n3n2)n[nH]1 [GANDOTINIB] | 0 (compounds with IC50 > 20 μM, percentage inhibition <80% at 20 µM or 50 μM, or percentage enzyme inhibition <50% at 10 µM were labelled as INACTIVE)
CC(C)CC(NC(=O)OCc1ccccc1)C(=O)NC(C=O)CC1CCNC1=O (centres unmarked) [GC373] | 1 (Compounds with IC50 < 10 µM or with a percentage of enzyme inhibition >50% at 10 µM were labelled as ACTIVE)
